In patent US20230146675A1, “PYRIMIDO[5,4-d]PYRIMIDINE DERIVATIVES AS ENT INHIBITORS FOR THE TREATMENT OF CANCERS, AND COMBINATION THEREOF WITH ADENOSINE RECEPTOR ANTAGONISTS” (ITEOS BELGIUM SA, priority 2020, published 2023) one finds IC50 data, which are given here for 24 compounds.

The test deals with T1, human ENT1 (Homo sapiens, UniProt Q99808).
T1 sequence (Q99808 1-456): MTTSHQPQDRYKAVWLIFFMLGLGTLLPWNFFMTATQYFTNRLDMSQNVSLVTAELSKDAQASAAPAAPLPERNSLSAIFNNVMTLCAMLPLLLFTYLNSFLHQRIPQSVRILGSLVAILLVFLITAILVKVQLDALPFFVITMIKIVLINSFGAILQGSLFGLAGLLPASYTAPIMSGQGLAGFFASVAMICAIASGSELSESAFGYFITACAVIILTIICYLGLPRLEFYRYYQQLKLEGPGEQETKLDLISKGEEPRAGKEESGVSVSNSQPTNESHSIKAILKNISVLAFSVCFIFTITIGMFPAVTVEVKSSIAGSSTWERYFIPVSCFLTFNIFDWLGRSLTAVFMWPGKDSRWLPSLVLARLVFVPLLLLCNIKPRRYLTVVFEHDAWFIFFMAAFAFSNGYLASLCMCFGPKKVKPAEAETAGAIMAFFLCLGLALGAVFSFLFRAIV
The test is described as follows: ENT1 binding assay (competition with Sahenta-DY647 on JAR cells). Details: JAR cells expressing ENT1 were bought from ATCC; host or cells: JAR cells. The note with it: binned IC50. How it is done: Purpose. […] By measuring the fluorescence at the end of the assay we could assess the binding potency of the compounds of the present invention.
JAR cells were resuspended in the described buffer. Compounds of the present invention and Sahenta-DY647 were diluted 200× in the described buffer.
The total volume of the reaction was 100 μL (50 μL of cells, 25 μL of the compounds of the present invention and 25 μL of Sahenta-DY647) in a 96 well plate, U-bottom (Greiner®, #650-180). The plates were washed 2× by centrifugation (4 min, 400 rcf at 4° C.) in the same buffer.
The compound `COCCN(CCOC)c1nc(N2CCC(O)C2)c2nc(N(CCOC)CCOC)nc(N3CCC(OC)CC3)c2n1` (stereo not drawn) [Compound 94, 1-(2,6-bis(bis(2-methoxyethyl)amino)-8-(4-methoxypiperidin-1-yl)pyrimido[5,4-d]pyrimidin-4-yl)pyrrolidin-3-ol] returned an IC50 of 500 to 1000 nM. Under `COCCN(CCOC)c1nc(N2CCC(F)(F)C2)c2nc(N(CCOC)CCOC)nc(N3CCC(OC)CC3)c2n1` [Compound 109, 4-(3,3-difluoropyrrolidin-1-yl)-N2,N2,N6,N6-tetrakis(2-methoxyethyl)-8-(4-methoxypiperidin-1-yl)pyrimido[5,4-d]pyrimidine-2,6-diamine] stands 100 to 500 nM; under `COCCN(CCOC)c1nc(N2CCC(OC)CC2)c2nc(N(CCOC)CCOC)nc(N(C)C)c2n1` [Compound 67, N2,N2,N6,N6-tetrakis(2-methoxyethyl)-8-(4-methoxypiperidin-1-yl)-N4,N4-dimethylpyrimido[5,4-d]pyrimidine-2,4,6-triamine], 500 to 1000 nM.

In the case of `COCCN(CCOC)c1nc(N2CCC(OC)CC2)c2nc(N(CCOC)CCOC)nc(NCc3ccc(OC)cc3)c2n1` [Compound 47, N4-(4-methoxybenzyl)-N2,N2,N6,N6-tetrakis(2-methoxyethyl)-8-(4-methoxypiperidin-1-yl)pyrimido[5,4-d]pyrimidine-2,4,6-triamine], the IC50 lay in the range of 100 to 500 nM. With `COCCN(CCOC)c1nc(N2CCc3oc(C)nc3C2)c2nc(N(CCOC)Cc3ccc(C(=O)O)cc3)nc(N3CCN(C)C(=O)C3)c2n1` [Compound 335, 4-(((6-(bis(2-methoxyethyl)amino)-4-(4-methyl-3-oxopiperazin-1-yl)-8-(2-methyl-6,7-dihydrooxazolo[4,5-c]pyridin-5(4H)-yl)pyrimido[5,4-d]pyrimidin-2-yl)(2-methoxyethyl)amino)methyl)benzoic acid], the IC50 was under 100 nM.

Take `COCCN(CCOC)c1nc(N2CCC(OC)CC2)c2nc(N(CCO)CCO)nc(N3CCN(C4CC4)C(=O)C3)c2n1` [Compound 315, 4-(2-(bis(2-hydroxyethyl)amino)-6-(bis(2-methoxyethyl)amino)-8-(4-methoxypiperidin-1-yl)pyrimido[5,4-d]pyrimidin-4-yl)-1-cyclopropylpiperazin-2-one]: the IC50 is 500 to 1000 nM. With `COCCN(CCOC)c1nc(N2CCC(OC)CC2)c2nc(N(CCOC)Cc3ccc(OC)c(OC)c3OC)nc(N3CCC(OC)CC3)c2n1` [Compound 183, N2,N2,N6-tris(2-methoxyethyl)-4,8-bis(4-methoxypiperidin-1-yl)-N6-(2,3,4-trimethoxybenzyl)pyrimido[5,4-d]pyrimidine-2,6-diamine], the IC50 was under 100 nM. As for `COCCN(CCOC)c1nc(N2CCN(c3ncccc3N)CC2)c2nc(N(CCOC)CCOC)nc(N3CCC(OC)CC3)c2n1` [Compound 121, 4-(4-(3-aminopyridin-2-yl)piperazin-1-yl)-N2,N2,N6,N6-tetrakis(2-methoxyethyl)-8-(4-methoxypiperidin-1-yl)pyrimido[5,4-d]pyrimidine-2,6-diamine], the IC50 lay within 500 to 1000 nM. Under `COCCN(CCOC)c1nc(N2CCN(C)C(=O)C2)c2nc(N(CCOC)CCOC)nc(N(C)Cc3cccc(OC)c3)c2n1` [Compound 235, 4-(2,6-bis(bis(2-methoxyethyl)amino)-8-((3-methoxybenzyl)(methyl)amino)pyrimido[5,4-d]pyrimidin-4-yl)-1-methylpiperazin-2-one] stands under 100 nM; under `COCCN(CCOC)c1nc(N2CCC(OC)CC2)c2nc(N(CCOC)CCOC)nc(NCc3cccc(OC)c3)c2n1` [Compound 48, N4-(3-methoxybenzyl)-N2,N2,N6,N6-tetrakis(2-methoxyethyl)-8-(4-methoxypiperidin-1-yl)pyrimido[5,4-d]pyrimidine-2,4,6-triamine], under 100 nM; under `COCCN(CCOC)c1nc(N2CCN(c3cccnc3)CC2)c2nc(N(CCOC)CCOC)nc(N3CCC(OC)CC3)c2n1` [Compound 118, N2,N2,N6,N6-tetrakis(2-methoxyethyl)-4-(4-methoxypiperidin-1-yl)-8-(4-(pyridin-3-yl)piperazin-1-yl)pyrimido[5,4-d]pyrimidine-2,6-diamine], 100 to 500 nM. Under `COCCN(CCOC)c1nc(N2CCC(OC)CC2)c2nc(N(CCOC)CCOCCCN3CCOCC3)nc(N3CCC(OC)CC3)c2n1` [Compound 44, N2,N2,N6-tris(2-methoxyethyl)-4,8-bis(4-methoxypiperidin-1-yl)-N6-(2-(3-morpholinopropoxy)ethyl)pyrimido[5,4-d]pyrimidine-2,6-diamine] stands 500 to 1000 nM.

Turning to `COCCN(CCOC)c1nc(N2CCC(OC)CC2)c2nc(N(CC(C)O)CC(C)O)nc(N3CCN(C)C(=O)C3)c2n1` (stereo not drawn) [Compound 327, 4-(2-(bis(2-hydroxypropyl)amino)-6-(bis(2-methoxyethyl)amino)-8-(4-methoxypiperidin-1-yl)pyrimido[5,4-d]pyrimidin-4-yl)-1-methylpiperazin-2-one], the IC50 was under 100 nM.

As for `COCCN(CCO)c1nc(N2CCN(C)C(=O)C2)c2nc(N(CCO)CCOC)nc(N3CCC(OC)CC3)c2n1` [Compound 306, 4-(2,6-bis((2-hydroxyethyl)(2-methoxyethyl)amino)-8-(4-methoxypiperidin-1-yl)pyrimido[5,4-d]pyrimidin-4-yl)-1-methylpiperazin-2-one], the IC50 lay within 100 to 500 nM.

For `COCCN(CCOC)c1nc(NCc2cccc(C#N)c2)c2nc(N(CCO)CCO)nc(N3CCC(OC)CC3)c2n1` [Compound 325, 3-(((6-(bis(2-hydroxyethyl)amino)-2-(bis(2-methoxyethyl)amino)-8-(4-methoxypiperidin-1-yl)pyrimido[5,4-d]pyrimidin-4-yl)amino)methyl)benzonitrile], the IC50 was under 100 nM. Under `COCCN(CCOC)c1nc(N2CCC(OC)CC2)c2nc(NCCn3cccn3)nc(N3CCC(OC)CC3)c2n1` [Compound 32, N2-(2-(1H-pyrazol-1-yl)ethyl)-N6,N6-bis(2-methoxyethyl)-4,8-bis(4-methoxypiperidin-1-yl)pyrimido[5,4-d]pyrimidine-2,6-diamine] stands 500 to 1000 nM. With `COCCN(CCOC)c1nc(N2CCc3nn(C)cc3C2)c2nc(N(CCOC)CCOC)nc(N3CCN(C)C(=O)C3)c2n1` [Compound 252, 4-(2,6-bis(bis(2-methoxyethyl)amino)-8-(2-methyl-2,4,6,7-tetrahydro-5H-pyrazolo[4,3-c]pyridin-5-yl)pyrimido[5,4-d]pyrimidin-4-yl)-1-methylpiperazin-2-one], the half-inhibitory concentration (IC50) was under 100 nM. With `COCCN(CCOC)c1nc(N2CCN(C)C(=O)C2)c2nc(N3CCn4cnnc4C3)nc(N3CCC(OC)CC3)c2n1` [Compound 299, 4-(2-(bis(2-methoxyethyl)amino)-6-(5,6-dihydro-[1,2,4]triazolo[4,3-a]pyrazin-7(8H)-yl)-8-(4-methoxypiperidin-1-yl)pyrimido[5,4-d]pyrimidin-4-yl)-1-methylpiperazin-2-one] the figure was 100 to 500 nM; with `COCCN(CCOC)c1nc(N2CCC(OC)CC2)c2nc(N(CCOC)CCOC)nc(NCCCn3ccnc3)c2n1` [Compound 176, N4-(3-(1H-imidazol-1-yl)propyl)-N2,N2,N6,N6-tetrakis(2-methoxyethyl)-8-(4-methoxypiperidin-1-yl)pyrimido[5,4-d]pyrimidine-2,4,6-triamine], 500 to 1000 nM; with `COCCN(CCOC)c1nc(N2CCC(OC)CC2)c2nc(N(CCOC)CCOC)nc(NCCCCC#N)c2n1` [Compound 179, 5-((2,6-bis(bis(2-methoxyethyl)amino)-8-(4-methoxypiperidin-1-yl)pyrimido[5,4-d]pyrimidin-4-yl)amino)pentanenitrile], 100 to 500 nM. With `COCCN(CCOC)c1nc(N2CCC(OC)CC2)c2nc(N(CCO)CCO)nc(N3CC(=O)N(C)C(C)(C)C3)c2n1` [Compound 311, 4-(2-(bis(2-hydroxyethyl)amino)-6-(bis(2-methoxyethyl)amino)-8-(4-methoxypiperidin-1-yl)pyrimido[5,4-d]pyrimidin-4-yl)-1,6,6-trimethylpiperazin-2-one] the figure was under 100 nM; with `CCCNc1nc(N(CCOC)CCOC)nc2c(N3CCN(C)C(=O)C3)nc(N(CCOC)CCOC)nc12` [Compound 214, 4-(2,6-bis(bis(2-methoxyethyl)amino)-8-(propylamino)pyrimido[5,4-d]pyrimidin-4-yl)-1-methylpiperazin-2-one], 100 to 500 nM. Under `CCCN(CCC)c1nc(N(CCOC)CCOC)nc2c(N3CCC(OC)CC3)nc(N(CCOC)CCOC)nc12` [Compound 165, N2,N2,N6,N6-tetrakis(2-methoxyethyl)-8-(4-methoxypiperidin-1-yl)-N4,N4-dipropylpyrimido[5,4-d]pyrimidine-2,4,6-triamine] stands under 100 nM; under `COCCN(CCOC)c1nc(N2CCC(OC)CC2)c2nc(N(CCOC)CCOC)nc(N(C)CCO)c2n1` [Compound 112, 2-((2,6-bis(bis(2-methoxyethyl)amino)-8-(4-methoxypiperidin-1-yl)pyrimido[5,4-d]pyrimidin-4-yl)(methyl)amino)ethanol], 100 to 500 nM.

By IC50 is commonly meant the concentration at which inhibition is half-maximal. Read a low IC50 as greater potency.
